According to patent publication US20240124417A1, “COMPOUNDS USEFUL AS IMMUNOMODULATORS” (Bristol-Myers Squibb Company, priority 2019, published 2024):

Biological target: T1, PD-1/PD-L1 (Homo sapiens, UniProt Q9NZQ7)
T1 construct: TVMV protease site linker (C); made in house; host or cells: HEK293T cells
Experiment: PD-1/PD-L1 Homogenous Time-Resolved Fluorescence (HTRF) binding assay
Details: PD-L1-His 10 nM, PD-1-Ig 20 nM
In short: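 Inhibitors pre-incubated 15 min with PD-L1-His extracellular domain (10 nM final) in dPBS with 0.1% BSA and 0.05% Tween-20, then PD-1-Ig (20 nM final) added for a further 15 min. Read-out by HTRF with europium cryptate anti-Ig (1 nM) and APC anti-His (20 nM). Related pairs: PD-1-Ig/PD-L2-His (20/5 nM), CD80-His/PD-L1-Ig (100/10 nM).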

T1 sequence (Q9NZQ7 18-239): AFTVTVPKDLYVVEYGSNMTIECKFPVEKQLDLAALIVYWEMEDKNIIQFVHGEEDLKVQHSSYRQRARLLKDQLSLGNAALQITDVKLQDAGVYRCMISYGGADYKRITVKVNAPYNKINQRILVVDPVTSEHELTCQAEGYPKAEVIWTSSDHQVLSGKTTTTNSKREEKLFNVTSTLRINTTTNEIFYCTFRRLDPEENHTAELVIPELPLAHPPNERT

## Cc1c(COc2cc(OCc3cncc(C#N)c3)c(CNCc3cccnc3Cl)cc2Cl)cccc1-c1cccc(OCC2CCCN(C)C2)c1Cl (centres unmarked) [Example 2621, 5-((4-chloro-5-((2′-chloro-2-methyl-3′-((1-methylpiperidin-3-yl)methoxy)-[1,1′-biphenyl]-3-yl)methoxy)-2-((((2-chloropyridin-3-yl)methyl)amino)methyl)phenoxy)methyl)nicotinonitrile]
  IC50: 8.9 nM

## CCc1csc(CNCc2cc(Cl)c(OCc3cccc(-c4cccc(OCC5CCCN(C)C5)c4Cl)c3C)cc2OCc2cncc(C#N)c2)n1 (centres unmarked) [Example 2622, 5-((4-chloro-5-((2′-chloro-2-methyl-3′-((1-methylpiperidin-3-yl)methoxy)-[1,1′-biphenyl]-3-yl)methoxy)-2-((((4-ethylthiazol-2-yl)methyl)amino)methyl)phenoxy)methyl)nicotinonitrile]
  IC50: 8.3 nM

## Cc1c(COc2cc(OCc3cncc(C#N)c3)c(CNCc3ncc4ccccn34)cc2Cl)cccc1-c1cccc(OCC2CCCN(C)C2)c1Cl (centres unmarked) [Example 2623, 5-((4-chloro-5-((2′-chloro-2-methyl-3′-((1-methylpiperidin-3-yl)methoxy)-[1,1′-biphenyl]-3-yl)methoxy)-2-(((imidazo[1,5-a]pyridin-3-ylmethyl)amino)methyl)phenoxy)methyl)nicotinonitrile]
  IC50: 6.1 nM

## [2H]C([2H])([2H])C(NCc1cc(Cl)c(OCc2cccc(-c3cccc(OCC4CCCN(C)C4)c3Cl)c2C)cc1OCc1cncc(C#N)c1)(c1ncon1)C([2H])([2H])[2H] (centres unmarked) [Example 2624, 5-((2-(((2-(1,2,4-oxadiazol-3-yl)propan-2-yl-1,1,1,3,3,3-d6)amino)methyl)-4-chloro-5-((2′-chloro-2-methyl-3′-((1-methylpiperidin-3-yl)methoxy)-[1,1′-biphenyl]-3-yl)methoxy)phenoxy)methyl)nicotinonitrile]
  IC50: 3 nM

## Cc1c(COc2cc(OCc3cncc(C#N)c3)c(CNC3(c4ncon4)CC(OCc4ccccc4)C3)cc2Cl)cccc1-c1cccc(OCC2CCCN(C)C2)c1Cl (centres unmarked) [Example 2625, 5-((2-(((3-(benzyloxy)-1-(1,2,4-oxadiazol-3-yl)cyclobutyl)amino)methyl)-4-chloro-5-((2′-chloro-2-methyl-3′-((1-methylpiperidin-3-yl)methoxy)-[1,1′-biphenyl]-3-yl)methoxy)phenoxy)methyl)nicotinonitrile]
  IC50: 35.3 nM
